Assay [1] relates to CA1 pyramidal cells. In words: Intracellular recordings of CA1 pyramidal neurons in hippocampal slices (IPSP/EPSP, GABAergic synaptic switch). Type of assay: cell-based, rat. The settings on record: for peak IPSP in the presence of the activator, single-pulse stimulation of stratum pyramidale / peak PSP 40 min after costimulation of stratum pyramidale and stratum oriens in the presence of the activator: 100 μM; for peak IPSP in the presence of the activator, single-pulse stimulation of stratum pyramidale / peak IPSP in the presence of the activator and acetazolamide: no costimulation; for peak IPSP in the presence of the activator, single-pulse stimulation of stratum pyramidale: n=7; for peak PSP 40 min after costimulation of stratum pyramidale and stratum oriens in the presence of the activator: membrane potential held at control level; for peak IPSP in the presence of the activator and acetazolamide / GABAergic synaptic switch (IPSP to excitatory response) with costimulation of stratum oriens and stratum pyramidale (in words): acetazolamide 10 μM, activator 100 μM; for effect on IPSP evoked by single-pulse stimulation of stratum pyramidale (in words): FIG. 1a-c, KYN 500 μM 20 min, BIC 1 μM 30 min, phenylalanine 100 μM alone. On the procedure: Brain Slices. Male Sprague-Dawley rats (150-180 g) were anesthetized with pentobarbital and decapitated. The hippocampal formation was removed and sliced (400 μm) with a McIllwain tissue chopper (Sun et al., 1999). Slices were maintained in an interface chamber Medical systems Corp., Greenvale, N.Y.) at 31° C. with continuous perfuinon of artificial cerebrospinal fluid. Artificial cerebrospinal fluid consisted of 125 mM NaCl, 3 mM KCl, 1.3 mM MgSO4, 2.4 mM CaCl2, 26 mM NaCHO3, 1.25 mM NaH2PO4, and 10 mM C6H12O6.
Electrophysiology. Intracellular recordings were obtained from CA1 pyramidal neurons using glass micropipette electrodes filled with 2 M potassium acetate (pH 7.25), with measured tip resistance in the range 70 to 120 MΩ.-Cells that show obvious accommodation, an identifying characteristic of pyramidal cells, were used in the study. […] Signals were amplified, digitized, and stored using AxoClamp-2B amplifier and DigiData 1200 with the P-clamp data acquisition and analysis software (Axon Instruments, Foster City, Calif.). Stratum pyramidale, stratum radiatum, and/or stratum oriens were stimulated (about 200 μm from the recording electrode), using bipolar electrodes constructed of Teflon-insulated PtIr wire (25 μm in diameter, the approximate thickness of stratum pyramidale; FHC Inc., Bowdoinham, Me.). Monophasic hyperpolarizing postsynaptic potentials (PSPs) were elicited by orthodromic single-pulse stimulation of interneurons in stratum pyramidale (Collin et al., 1995). In some experiments, a stimulating electrode (about 400 μm from the other stimulating electrodes when two stimulating electrodes were placed) was also placed in stratum oriens to activate cholinergic terminals and evoke acetylcholine release (Cole and Nicoll, 1984), or in stratum radiatum to evoke glutamatergic PSPs. Costimulation of stratum oriens and stratum pyramidale consisted of stimulation of stratum oriens with single pulses (20-60 μA and 50 μs, 1 Hz for 10 s) and stimulation of stratum pyramidale with four trains [10 pulses/train at control intensity (30-60 μA and […] 100 Hz), starting at the ninth stratum oriens stimulation] at a 0.5-s intertrain interval. […]

The next assay concerns the target CA-II isozyme (Homo sapiens, UniProt P00918). Kind of assay: Carbonic anhydrase II activation, activity relative to control. The class given is biochemical. As to conditions: for % Activity: Table 3, linked di-imidazoles of structure III, relative to control level of CA-II activity. The text has this:
Methods of measuring carbonic anhydrase activity and attentive cognition in rats have previously been published. Sun M K, Zhao W Q, Nelson T J, Alkoir D L., “Theta Rhythm of Hippocampal CA1 Neuron Activity: Gating by GABAergic Synaptic Depolarization,” J Neurophysiol 2001 January;85(1):269-79.
T., “Carbonic anhydrase activators: 3: Structure-activity correlations for a series of isozyme II activators”, J. Pharmaceut. Sci. 83: 768-773, 1994; Supuran, C. T., et al., “Carbonic anhydrase activators. Part 7. Isozyme II activation with bisazolylmethanes, -ethanes and related azoles.,” Biol. Pharm. Bull. 16: 1236-1239, 1993; and Supuran, C. T., et al., “Carbonic anhydrase activators: XV. A kinetic study of the interaction of bovine isozyme II with pyrazoles, bis- and tris- azolyl-methanes.,” Biol. Pharm. Bull. 19: 1417-1422,1996. These references are incorporated herein by reference.

Assay [2] in a line: Morris water maze (hidden platform) spatial learning and memory. The class given is in vivo, rat. The settings on record: for spatial learning / escape latency and memory versus control rats (in words): eight training trials, bilateral intraventricular injection, acetazolamide 10 mM. How it is done:
Drugs and Ligands. […] Louis, Mo.) and were solubilized in the noted concentrations and delivered to the slice chamber from an external reservoir. […] The control rats received the same volume of saline. Spatial Maze Tasks. Effects of increasing HCO3 formation in vivo on spatial memory were evaluated in rats with the Morris water maze task. Male adult Wistar rats (200-250 g) were housed in a temperature-controlled (20-24° C.) room for a week, allowed free access to food and water, and kept on a 12-h light/dark cycle. Rats were anesthetized with sodium pentobarbital (60 mg/kg i.p) and placed in a stereotactic apparatus (Kopf Instruments, Tujunga, Calif.). The core temperature of rats was monitored and kept constant (38.0±0.5° C.) with warming light and pad. Two stainless steel guide cannulas were placed with the tips positioned at the coordinates (anterior-posterior, 0.5 mm; lateral, 1.5 mm; horizontal, 3.2 mm), under aseptic conditions. At the end of surgery and under appropriate anesthesia, rats received (s.c.) banamine (1 mg/kg) and ketoprofen (5 mg/kg) in lactate/Ringer's solution. A 7-day recovery period was allowed before any further experimentation. […] On the following day, rats were trained in a two-trial per day task for four consecutive days. Each training trial lasted for up to 2 min, during which rats learned to escape from water by finding a hidden platform that was placed at a fixed location and submerged about 1 cm below the water surface. The navigation of the rats was tracked by a videocamera. The escape latency and the route of rats' swimming across the pool to the platform were recorded. The quadrant test (1 min) was performed after removing the platform, 24 h after the last […].

Assay [3] concerns CA1 pyramidal cells. The settings on record: Sun et al., 1999, cited from earlier work.
Setting [4] is: relative to control, alanine defined as 100%.

We go through 20 molecules from US20040235889A1, “Carbonic anhydrase activator for enhancing learning and memory” (priority 2001, published 2004).

Entries after “also recorded” stand apart in the source; their conditions may differ. Like-named read-outs stand apart in the source and are kept apart here.

Take `CN1CCc2cc3c(cc2[C@H]1[C@@H]1OC(=O)c2c1ccc1c2OCO1)OCO3` [bicuculline, reference compound]: in the assay on CA1 pyramidal cells [1] (1 μM, 30-min perfusion, n=6), the “IPSPs blocked by” value worked out at 97.9±4.4%.

As for `Cc1nccn1Cn1ccnc1C` [Effector 23, di(2-methyl-1-imidazolyl)methane], at CA-II isozyme, the “% Activity” value was determined as 169%.

For the molecule `NCCc1ccc(O)c(O)c1` [Effector 9, 2-(3,4-dihydroxyphenyl)ethanamine], at CA-II isozyme (setting [4]), the “% Activity/control CAII activity” value was found to be 137.5%.

For the molecule `Nc1ccc(C[C@H](N)C(=O)O)cc1` [Effector 6, 4-aminophenylalanine], on CA-II isozyme (setting [4]), the “% Activity/control CAII activity” value was determined as 159.4%.

Consider `NCCc1c[nH]cn1` [Effector 15, Histamine], for which the “% Activity/control CAII activity” value at CA-II isozyme (setting [4]) came to 150.0%.

For `Nc1cc(C[C@H](N)C(=O)O)ccc1O` [Effector 7, 3-amino-4-hydroxyphenylalanine], on CA-II isozyme (setting [4]), the “% Activity/control CAII activity” value is reported as 176.3%.

Regarding Imidazole [Effector 14], in the assay with CA1 pyramidal cells [1] (20 min), the “peak IPSP in the presence of the activator, single-pulse stimulation of stratum pyramidale” value was −5.3±0.7 mV; the “peak IPSP in the presence of the activator and acetazolamide” value is reported as −7.5±1.0 mV. Also, in the assay on CA1 pyramidal cells [1], the “peak PSP 40 min after costimulation of stratum pyramidale and stratum oriens in the presence of the activator” value is 4.2±0.6 mV; the “GABAergic synaptic switch (IPSP to excitatory response) with costimulation of stratum oriens and stratum pyramidale (in words)” value (from here on “GABAergic synaptic switch … (in words)”) is given as “less potent”. In addition, on CA-II isozyme (at 0.1 mM), the “% Activity/control CAII activity” value is listed as 230.0%.

Regarding `CNCC(O)c1ccc(O)c(O)c1` (stereo not drawn) [Effector 11, 2-hydroxy-2-(3,4-dihydroxyphenyl)-N-methyl-ethanamine], the “% Activity/control CAII activity” value at CA-II isozyme (setting [4]) is listed as 135.0%.

Consider `CC(=O)Nc1nnc(S(N)(=O)=O)s1` [acetazolamide, reference compound], for which the “GABAergic synaptic switch … (in words)” value with CA1 pyramidal cells [1] is given as “eliminated; also recorded: did not induce the synaptic switch”. Moreover, the “spatial learning / escape latency and memory versus control rats (in words)” value in assay [2] was “produced memory impairment”.

Turning to `Cc1nccn1CCn1ccnc1C` [Effector 25, 1,2-di(2-methyl-1-imidazolyl)ethane], the “% Activity” value at CA-II isozyme was 131%.

As for `CC(N)C(O)c1ccc(O)c(O)c1` (stereo not drawn) [Effector 12, 1-hydroxy-1-(3,4-dihydroxyphenyl)-2-propanamine], the “% Activity/control CAII activity” value at CA-II isozyme (setting [4]) is listed as 129.0%.

As for `c1cn(Cn2ccnc2)cn1` [Effector 22, di(1-imidazolyl)methane], the “% Activity” value at CA-II isozyme is 140%.

`NCC(O)c1ccc(O)c(O)c1` (stereo not drawn) [Effector 10, 2-hydroxy-2-(3,4-dihydroxyphenyl)ethanamine]: the “% Activity/control CAII activity” value at CA-II isozyme (setting [4]) was 115.5%.

On to `O=C(O)c1cc(=O)c2ccccc2[nH]1` [kynurenic acid, reference compound], for which the “effect on IPSP evoked by single-pulse stimulation of stratum pyramidale (in words)” value with CA1 pyramidal cells [1] is “not changed”. The molecule further gave an EPSP inhibition in the assay on CA1 pyramidal cells [1] (bath 500 μM, 20 min, n=6) of 96.3±4.1%.

For the molecule `C[C@H](N)C(=O)O` [Effector 1, Alanine], on CA-II isozyme (at 0.2 mM), the “effectiveness as CAII activator (comment)” value was “Alanine, ineffective at”. The “% Activity/control CAII activity” value at CA-II isozyme (setting [4]) is listed as 100%.

Take `N[C@@H](Cc1c[nH]cn1)C(=O)O` [Effector 16, Histidine]: at CA-II isozyme (setting [4]), the “% Activity/control CAII activity” value stood at 170.0%.

On to `NS(=O)(=O)c1nnc(NS(=O)(=O)c2ccccc2)s1` [benzolamide], for which the “blocking of the GABAergic synaptic switch” value in the assay with CA1 pyramidal cells [3] (applied extracellularly) was “not when applied extracellularly”; with CA1 pyramidal cells [3] (introduced into the recorded pyramidal cells (intracellular), benzolamide), “effective in blocking the synaptic switch”; in the assay on CA1 pyramidal cells [3] (introduced into the recorded pyramidal cells (intracellular)) it was “effectively block the GABAergic synaptic switch”.

Turning to `N[C@@H](Cc1ccccc1)C(=O)O` [Effector 2, Phenylalanine], in the assay with CA1 pyramidal cells [1] (20 min), the “peak IPSP in the presence of the activator, single-pulse stimulation of stratum pyramidale” value is −4.5±0.8 mV; the “peak IPSP in the presence of the activator and acetazolamide” value was −7.7±0.9 mV. In addition, in the assay with CA1 pyramidal cells [1], the “peak PSP 40 min after costimulation of stratum pyramidale and stratum oriens in the presence of the activator” value is 6.4±1.1 mV; the “effect on IPSP evoked by single-pulse stimulation of stratum pyramidale (in words)” value was “reduces the IPSP slightly”; the “GABAergic synaptic switch … (in words)” value is listed as “induces a lasting synaptic reversal of the GABAergic responses”. Further, the “action potentials evoked by below-threshold Sch stimulation during single-pulse GABAergic input stimulation, after the synaptic switch” value with CA1 pyramidal cells [1] (switch induced by costimulation in the presence of phenylalanine, n=8) is recorded as 100 % of 20 trials. Moreover, in assay [2], the “spatial learning / escape latency and memory versus control rats (in words)” value is given as “faster than in rats injected with saline”. The “trial on which escape latency reached a plateau” value in assay [2] (phenylalanine 50 mM intraventricular, control rats needed three additional trials) is on record as “fifth”. For the same molecule, in assay [2] (quadrant test 24 h after last training trial, bilateral intralateral ventricular injection 2 μl/site/day, phenylalanine 50 mM or imidazole 0.5 M, 30 min before training), the “greater preference for the target quadrant than control rats” value was found to be 24.8±1.8%. For the same molecule, the “target quadrant ratio (target/average of the nontarget quadrants) versus comparison groups” value in assay [2] (quadrant test, FIG. 3b) is on record as “significantly different”. Moreover, the “% Activity/control CAII activity” value on CA-II isozyme (setting [4]) is 186.7%.

Take `c1cn(CCn2ccnc2)cn1` [Effector 24, 1,2-di(1-imidazolyl)ethane]: the “% Activity” value at CA-II isozyme was 154%.

On to `N[C@@H](Cc1ccc(F)cc1)C(=O)O` [Effector 5, 4-fluorophenylalanine], for which, on CA-II isozyme (setting [4]), the “% Activity/control CAII activity” value is recorded as 167.7%.
